Drawing on publication PMC6757278, “Structural Basis for Inhibition of Human Primase by Arabinofuranosyl Nucleoside Analogues Fludarabine and Vidarabine” (ACS Chemical Biology, 2019), this text covers Kd and IC50 for six compounds.

pIC50, pKd: −log10 of the molar value.

The first test has as its target T1, Pri1 (full-length, 1 to 420) (Homo sapiens, UniProt P49642).
T1 construct: gene PRIM1; full-length catalytic subunit alone (1-420), His6 tag cleaved by TEV protease, E. coli Rosetta2 (DE3), pRSFDuet-1
T1 sequence (P49642 1-420): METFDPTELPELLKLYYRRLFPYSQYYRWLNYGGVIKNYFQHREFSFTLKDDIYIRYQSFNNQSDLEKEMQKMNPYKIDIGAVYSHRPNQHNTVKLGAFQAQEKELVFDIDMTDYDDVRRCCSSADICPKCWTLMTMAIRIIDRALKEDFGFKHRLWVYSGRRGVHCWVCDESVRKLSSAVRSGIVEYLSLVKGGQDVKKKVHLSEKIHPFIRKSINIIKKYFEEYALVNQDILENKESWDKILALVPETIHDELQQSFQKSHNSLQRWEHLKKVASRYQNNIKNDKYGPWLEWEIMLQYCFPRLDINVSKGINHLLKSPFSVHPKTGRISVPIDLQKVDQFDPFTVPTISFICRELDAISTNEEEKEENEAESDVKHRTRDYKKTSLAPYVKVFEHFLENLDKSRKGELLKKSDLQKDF
Nature of the test: fluorescence anisotropy direct titration. The format is binding.
Conditions: not given
Background: In fluorescence polarisation assays a small probe gives low polarisation when free and higher when bound to something large.
Regarding `O=C(NCCCCCCNc1ncnc2c1ncn2[C@@H]1O[C@H](COP(=O)(O)OP(=O)(O)OP(=O)(O)O)[C@@H](O)[C@H]1O)c1ccc2c(c1)C1(OC2=O)c2ccc(O)cc2Oc2cc(O)ccc21` [6FAM-ATP], the negative-log Kd (pKd) (commonly the Kd on a negative log10 scale, so that one unit is a factor of ten) is 6.39.

In another test the target is T1, Pri1 (full-length, 1 to 420). Description: fluorescence polarization competition against 6FAM-ATP. In kind it is binding. The note with it: read-out: K1/2.
On to `Nc1nc(F)nc2c1ncn2[C@@H]1O[C@H](COP(=O)(O)OP(=O)(O)OP(=O)(O)O)[C@@H](O)[C@@H]1O` [fludarabine-TP], for which the pIC50 is 5.96. `Nc1nc(F)nc2c1ncn2[C@@H]1O[C@H](COP(=O)(O)OP(=O)(O)OP(=O)(O)O)[C@@H](O)[C@H]1O` [2F-ATP]: the pIC50 was 5.14.

For the compound `Nc1ncnc2c1ncn2[C@@H]1O[C@H](COP(=O)(O)OP(=O)(O)OP(=O)(O)O)[C@@H](O)[C@H]1O` [ATP], the pIC50 is 5.12.

Consider `Nc1ncnc2c1ncn2[C@H]1C[C@H](O)[C@@H](COP(=O)(O)OP(=O)(O)OP(=O)(O)O)O1` [dATP], for which the pIC50 is 5.48. In the case of `Nc1ncnc2c1ncn2[C@@H]1O[C@H](COP(=O)(O)OP(=O)(O)OP(=O)(O)O)[C@@H](O)[C@@H]1O` [vidarabine-TP], the pIC50 is 5.82.
